Reference: patent publication US20220062199A1, “PH[…] ACTIVATOR COMPOUNDS, COMPOSITIONS, METHODS AND USES THEREOF” (SOCIETE DES PRODUITS NESTLE S.A., priority 2019, published 2022)

What was measured:
[1] = test system: phosphorylation of the AMPK substrate, acetyl-CoA carboxylase (ACC), in U2OS Flp-In T-REx mammalian cells; test: pACC HTRF assay: phosphorylation of the AMPK substrate ACC in U2OS Flp-In T-REx cells; assay type: cell-based; details: varying concentrations, 1 h, media lacking FBS, FIG. 2
Description: U2OS Flp-In T-REx cells were first seeded at 50 K in a 96-well plate and left overnight at 37 C in DMEM GlutaMAX (Thermo Fisher Scientific) supplemented with 10% (vol/vol) FBS and 100 U/ml penicillin G, and 100 μg/ml streptomycin. Cells were treated for 1 h with varying concentrations of Lusianthridin in media lacking FBS and then cells were lysed in 50 μl of Cisbio lysis buffer #1 supplemented with blocking solution as per the manufacturer's protocol (Cisbio). Cells were lysed for 30 mins at room temperature before 16 μl of lysate was incubated with 4 μl of the HTRF antibodies (1:40 dilution of the acceptor and donor (p)ACC antibodies, as per the manufacturers protocol). Lysates were incubated overnight with the antibodies before 665 nm/620 nm ratio was determined using a MolecularDevices i3 plate reader (with a HTRF cartridge add-on).

[2] = molecular target: T1, AMPKα2β1γ1 (Homo sapiens, UniProt P54619+P54646+Q9Y478); test: Activation of bacterially-expressed AMPKα2β1γ1 in vitro (HTRF-KinEASE Cisbio assay); assay type: biochemical; details: CaMKKβ-phosphorylated purified AMPK, varying concentrations, 30 mins, FIG. 1
T1 construct: His; made in house; host or cells: bacteria
Description: The AMPK heterotrimers were expressed in bacteria and purified through the His-α subunit by nickel purification before further purification through gel filtration. After being phosphorylated by incubation with CaMKKβ, AMPK complexes were further purified with a final gel filtration purification step. Phosphorylated purified AMPK was incubated with varying concentrations of Compound 1 or 2 for 30 mins using substrate and reagents from the HTRF-KinEASE Cisbio assay kit (STK S1 Kit). Phosphorylation of the substrate was measured by incubating with donor and acceptor antibodies for 2 h at room temperature as per the manufacturer's protocol (Coulerie et al., (2016) PMID: 27792327) and phosphorylated peptide detected by performing HTRF. The 665 nm/620 nm ratio was determined and plotted vs the log of the concentration of ligand.

T1 sequence (P54646 whole entry): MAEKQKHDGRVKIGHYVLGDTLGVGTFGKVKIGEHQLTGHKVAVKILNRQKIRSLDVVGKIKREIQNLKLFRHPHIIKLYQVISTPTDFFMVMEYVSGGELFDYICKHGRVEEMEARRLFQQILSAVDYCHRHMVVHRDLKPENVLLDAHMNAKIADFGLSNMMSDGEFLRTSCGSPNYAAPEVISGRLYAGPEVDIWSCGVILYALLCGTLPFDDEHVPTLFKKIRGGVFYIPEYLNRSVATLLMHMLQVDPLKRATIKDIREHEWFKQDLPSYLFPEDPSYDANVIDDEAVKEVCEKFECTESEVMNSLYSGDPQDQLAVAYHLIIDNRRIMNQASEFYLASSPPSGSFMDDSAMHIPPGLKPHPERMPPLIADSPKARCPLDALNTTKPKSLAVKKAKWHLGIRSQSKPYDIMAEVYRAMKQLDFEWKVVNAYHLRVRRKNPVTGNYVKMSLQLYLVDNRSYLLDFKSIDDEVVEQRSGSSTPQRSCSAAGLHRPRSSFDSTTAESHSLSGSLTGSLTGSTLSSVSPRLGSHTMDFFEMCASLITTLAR
T1 sequence (Q9Y478 whole entry): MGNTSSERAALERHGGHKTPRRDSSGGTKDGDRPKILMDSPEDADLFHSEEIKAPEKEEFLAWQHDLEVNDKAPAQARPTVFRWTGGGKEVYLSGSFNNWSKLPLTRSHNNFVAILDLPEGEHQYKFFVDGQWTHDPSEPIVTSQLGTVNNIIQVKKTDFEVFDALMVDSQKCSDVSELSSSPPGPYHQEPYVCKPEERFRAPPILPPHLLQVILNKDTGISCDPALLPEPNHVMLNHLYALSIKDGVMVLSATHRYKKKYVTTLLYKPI
T1 sequence (P54619 whole entry): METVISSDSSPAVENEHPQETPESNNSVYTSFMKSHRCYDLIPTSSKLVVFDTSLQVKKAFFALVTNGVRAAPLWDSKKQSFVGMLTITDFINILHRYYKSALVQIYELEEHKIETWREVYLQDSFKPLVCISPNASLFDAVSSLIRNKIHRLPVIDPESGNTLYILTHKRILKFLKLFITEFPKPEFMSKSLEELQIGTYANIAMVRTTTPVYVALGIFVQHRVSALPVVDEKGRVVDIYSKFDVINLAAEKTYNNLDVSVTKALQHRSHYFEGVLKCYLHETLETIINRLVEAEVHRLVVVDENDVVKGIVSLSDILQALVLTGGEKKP

SMILES	phosphorylation of the AMPK substrate ACC (665 nm/620 nm HTRF ratio) [1]	activation of AMPK complexes in vitro (substrate phosphorylation, 665 nm/620 nm HTRF ratio vs log concentration) [2]
COc1cc(O)c2c(ccc3cccc(O)c32)c1 [Compound 2, 2-Methoxyphenanthrene-4,5-diol]	increase the phosphorylation of the AMPK substrate, ACC, in a dose-dependent manner	directly activate AMPK complexes in vitro
COc1cc(O)c2c(ccc3cc(O)ccc32)c1 [Compound 1, 7-Methoxyphenanthrene-2,5-diol]	increase the phosphorylation of the AMPK substrate, ACC, in a dose-dependent manner	directly activate AMPK complexes in vitro
